For four molecules, IC50 results are on record in ChEMBL document CHEMBL1150619, “Minor steroidal alkaloids from the marine sponge Corticium sp” (J Nat Prod, 2002).

Usually IC50 stands for the concentration that gives 50% inhibition.

Assay [1] has as its system C6. In words: Cytotoxicity against rat C6 cells assessed as cell viability after 24 hrs by MTT assay. Format: functional, cell-based. To be noted: C6, 24 h. In general terms: Formazan colour is commonly taken as a measure of viable cells.
Assay [2] in a line: Cytotoxicity against mouse RAW264 cells assessed as cell viability after 24 hrs by MTT assay. The class given is functional, cell-based.
Setting [3] is: Mus musculus, RAW264.7, 24 h, read-out: IC50.

Structures are written as SMILES. Values after ≈ are worked out from the molar mass of the structure shown.

With `CC(C)C1=CC(=O)N/C1=C\[C@@H](C)[C@H]1CC[C@H]2C3=CC[C@H]4C[C@H](N)CC[C@]4(C)[C@H]3CC[C@]12C` [PLAKINAMINE G], the IC50 was 6.8 µg/mL (≈ 15.6 µM) in assay [1] and “Not Active” in assay [2] (raw264).

Turning to `CC1=C(/C=C/[C@@H](C)[C@H]2CC[C@H]3C4=CC[C@H]5[C@H](O)[C@H](N)CC[C@]5(C)[C@H]4CC[C@]23C)CCN(C)C1` [4ALPHA-HYDROXYDEMETHYLPLAKINAMINE B], the IC50 in assay [1] is 26.1 µg/mL (≈ 57.7 µM); in assay [2] (setting [3]) it was 16.2 µg/mL (≈ 35.8 µM).

`CC(C)C1CCNC1C[C@@H](C)[C@H]1CC[C@H]2C3=CC[C@H]4C[C@H](N)CC[C@]4(C)[C@H]3CC[C@]12C` (stereo partly drawn) [TETRAHYDROPLAKINAMINE A]: the half-inhibitory concentration (IC50) in assay [1] is 1.4 µg/mL (≈ 3.28 µM); in assay [2] (raw264) it was “Not Active”.

With `CC1=C(/C=C/[C@@H](C)[C@H]2CC[C@H]3C4=CC[C@H]5C(=O)[C@@H](N(C)C)CC[C@]5(C)[C@H]4CC[C@]23C)CCNC1` [PLAKINAMINE H], the figures for the IC50 in assay [1] and in assay [2] (setting [3]) were 9 µg/mL (≈ 19.4 µM) and 61 µg/mL (≈ 131 µM), respectively.
